Structures can show the parent of a compound that is named as a salt. Where two headings read alike, the source gives them in different places.
Columns and labels:
IL-1β = experiment: THP-1 AlphaLISA IL-1β cytokine inhibition assay (differentiated THP-1 cells, LPS then nigericin); format: cell-based; conditions: for IC50: THP-1 cell, PMA-differentiated, LPS 24 hr + nigericin 1 hour; for effectiveness in the IL-1β assay: THP-1 cells, result in words
Description: Measuring Inhibitory Effects on IL-1β Cytokine Output from THP-1s
The cytokine inhibition profiles of compounds of formula (I) were determined in a differentiated THP-1 cell assay. All assays were performed in RPMI-1640 growth medium (Gibco), supplemented with 10% fetal bovine serum (FBS; Gibco), 1% penicillin-streptomycin and 1% sodium pyruvate unless specified otherwise. The IL-1β cytokine inhibition assay was run in a background of differentiated THP-1 cells as described below. All reagents described were from Sigma-Aldrich unless specified otherwise. Compounds were prepared as 10 mM DMSO stocks.
THP-1 cells were expanded as a suspension up to 80% confluence in appropriate growth medium. Cells were harvested, suspended, and treated with an appropriate concentration of phorbol 12-myristate 13-acetate (PMA) over a 72 hr period (37° C./5% CO2).
Following 72 hrs of THP-1 cell incubation, cellular medium was removed and replaced with fresh growth media containing 1% of FBS. Working concentrations of compounds were prepared separately in 10% FBS treated growth medium and pre-incubated with the cells for 30 minutes (37° C./5% CO2). Following the 30 minute compound pre-incubation, THP-1s were treated with an appropriate concentration of LPS and the cells were subsequently incubated for a 24 hr period (37° C./5% CO2). An appropriate final concentration of Nigericin was then dispensed into the THP-1 plates and incubated for 1 hour (37° C./5% CO2) before THP-1 supernatants were harvested and collected in separate polypropylene 96-well holding plates.
Reagents from an IL-1β and IL-6 commercial kit (Perkin Elmer) were prepared and run according to the manufacturer's instructions. Subsequently, fluorescence signal detection in a microplate reader was measured (EnVision® Multilabel Reader, Perkin Elmer).
Percentage inhibition was calculated per cytokine by normalising the sample data to the high and low controls used within each plate (+/−LPS respectively). Percentage inhibition was then plotted against compound concentration and the 50% inhibitory concentration (IC50) was determined from the resultant concentration-response curve.

NRF2 = experiment: DiscoverX PathHunter NRF2 translocation assay +/-GSH in U2OS cells; format: cell-based; conditions: for EC50: U2OS PathHunter cells, 6 hours, read-out: NRF2 activation EC50; for NRF2 activation Emax: normalised to DMF high control
Description: Potency and efficacy of compounds of formula (I) against the target of interest to activate NRF2 (nuclear factor erythroid 2-related factor 2) were determined using the PathHunter NRF2 translocation kit (DiscoverX). The NRF2 translocation assay was run using an engineered recombinant cell line, utilising enzyme fragment complementation to determine activation of the Keap1-NRF2 protein complex and subsequent translocation of NRF2 into the nucleus. Enzyme activity was quantified using a chemiluminescent substrate consumed following the formation of a functional enzyme upon PK-tagged NRF2 translocation into the nucleus.
The assay was run under both +/−GSH (glutathione) conditions to determine the sensitivity of the compounds' NRF2-activating abilities to attenuation by GSH.
Additionally, a defined concentration of DMF was used as the ‘High’ control to normalise test compound activation responses to.
U2OS PathHunter express cells were thawed from frozen prior to plating. Following plating, U2OS cells were incubated for 24 hrs (37° C./5% CO2) in commercial kit provided cell medium.
Following 24 hrs of U2OS incubation, cells were directly treated with an appropriate final concentration of compound, for −GSH conditions or, for +GSH conditions, an intermediate plate containing 6× working concentrations of compound stocks was prepared in a 6 mM working concentration of GSH solution (solubilised in sterile PBS). Following a 30 minute compound-GSH pre-incubation (37° C./5% CO2) for +GSH treatment, plated U2OS cells were incubated with an appropriate final concentration of compound and GSH.
Following compound (+/−GSH) treatment, the U2OS plates were incubated for a further 6 hours (37° C./5% CO2) before detection reagent from the PathHunter NRF2 commercial kit was prepared and added to test plates according to the manufacturer's instructions. Subsequently, the luminescence signal detection was measured in a microplate reader (PHERAstar®, BMG Labtech).
Percentage activation was calculated by normalising the sample data to the high and low controls used within each plate (+/−DMF). Percentage activation/response was then plotted against compound concentration and the 50% activation concentration (EC50) was determined from the plotted concentration-response curve.

hepatocytes [1] = experiment: Hepatocyte stability assay, mouse; format: in vitro ADME; conditions: 10 μM compound, 0.5×10^6 cells/mL
Description: (§1) Defrosted cryo-preserved hepatocytes (viability >70%) were used to determine the metabolic stability of a compound via calculation of intrinsic clearance (Clint; a measure of the removal of a compound from the liver in the absence of blood flow and cell binding). Clearance data are particularly important for in vitro work as they can be used in combination with in vivo data to predict the half-life and oral bioavailability of a drug.
(§2) The metabolic stability in hepatocytes assay involves a time-dependent reaction using both positive and negative controls. The cells were pre-incubated at 37° C. then spiked with test compound (and positive control); samples were taken at pre-determined time intervals and were analysed to monitor the change in concentration of the initial drug compound over 60 minutes. A buffer incubation reaction (with no hepatocytes present) acted as a negative control and two cocktail solutions, containing compounds with known high and low clearance values (verapamil/7-hydroxycoumarin and propranolol/diltiazem), acted as positive controls. • 1. The assay was run with a cell concentration of 0.5×10^6 cells/mL in Leibovitz buffer. • 2. All compounds and controls were run in duplicate. • 3. Compound concentration was 10 μM. • 4. All compounds and controls were incubated with both cells and buffer to show turnover was due to hepatic metabolism. • 5. All wells on the incubation plate had 326.7 μL of either cells or buffer added. • 6. Prior to assay, cell and buffer-only incubation plates were preincubated for 10 mins at 37° C. • 7. The assay was initiated by adding compounds, 3.3 μL of 1 mM in 10% DMSO-90% Buffer; final DMSO concentration was 0.1%. • 8. Samples were taken at regular timepoints (0, 5, 10, 20, 40, 60 min) until 60 mins. • 9. Sample volume was 40 μL and was added to 160 μL of crash solvent (acetonitrile with internal standard) and stored on ice. • 10. At the end of the assay, the crash plates were centrifuged at 3500 rpm for 20 mins at 4° C. • 11. 80 μL of clear supernatant was removed and mixed with 80 μL of deionised water before being analysed by LC-MS/MS.
(§3) Raw LC-MS/MS data was exported to, and analysed in, Microsoft Excel for determination of intrinsic clearance. The percentage remaining of a compound was monitored using the peak area of the initial concentration as 100%. Intrinsic clearance and half-life values were calculated using a graph of the natural log of percentage remaining versus the time of reaction in minutes. Half-life (min) and intrinsic clearance (Clint in μL min^−1 10^−6 cells) values were calculated using the gradient of the graph (the elimination rate constant, k) and Equations 1 and 2.

[2] = Hepatocyte stability assay, human; format: in vitro ADME; conditions: cryopreserved hepatocytes; Human hepatocytes, 10 μM compound, 0.5×10^6 cells/mL; read-out: T½
Description: as §1, §2, §3

hepatocytes [3] = experiment: Hepatocyte stability assay, human; format: in vitro ADME
Description: as §1, §2, §3

IL-6 = experiment: THP-1 AlphaLISA IL-6 cytokine inhibition assay (differentiated THP-1 cells, LPS then nigericin); format: cell-based; conditions: THP-1 cell, PMA-differentiated, LPS 24 hr + nigericin 1 hour
Description: The cytokine inhibition profiles of compounds of formula (I) were determined in a differentiated THP-1 cell assay. All assays were performed in RPMI-1640 growth medium (Gibco), supplemented with 10% fetal bovine serum (FBS; Gibco), 1% penicillin-streptomycin and 1% sodium pyruvate unless specified otherwise. The IL-1β cytokine inhibition assay was run in a background of differentiated THP-1 cells as described below. All reagents described were from Sigma-Aldrich unless specified otherwise. Compounds were prepared as 10 mM DMSO stocks. THP-1 cells were expanded as a suspension up to 80% confluence in appropriate growth medium. Cells were harvested, suspended, and treated with an appropriate concentration of phorbol 12-myristate 13-acetate (PMA) over a 72 hr period (37° C./5% CO2). Following 72 hrs of THP-1 cell incubation, cellular medium was removed and replaced with fresh growth media containing 1% of FBS. Working concentrations of compounds were prepared separately in 10% FBS treated growth medium and pre-incubated with the cells for 30 minutes (37° C./5% CO2). […] Subsequently, fluorescence signal detection in a microplate reader was measured (EnVision® Multilabel Reader, Perkin Elmer). Percentage inhibition was calculated per cytokine by normalising the sample data to the high and low controls used within each plate (+/−LPS respectively).

[4] = Hepatocyte stability assay, mouse; format: in vitro ADME; conditions: cryopreserved hepatocytes, 10 μM compound, 0.5×10^6 cells/mL, read-out: T½
Description: as §1, §2, §3

[5] = Human hepatocytes, 10 μM compound, 0.5×10^6 cells/mL

Q: With `C=C(Cc1ccccc1Cl)C(=O)O` [2-(2-chlorobenzyl)acrylic acid, reference compound] as the compound, how does the IC50 (IL-1β; Homo sapiens) read?
A: > 100 µM

Q: And the EC50 (NRF2; +GSH)?
A: > 100 µM

Q: And the “NRF2 activation Emax” value (NRF2; +GSH)?
A: 9%

Q: And the EC50 (NRF2; −GSH)?
A: > 100 µM

Q: And the “NRF2 activation Emax” value (NRF2; −GSH)?
A: 2%

Q: What about the Clint (hepatocytes [1]) of the same compound?
A: 95 μL min^−1 10^−6 cells

Q: And the half-life at 10 μM [2]?
A: 59 min

Q: What about the Clint (hepatocytes [3]; [5]) of the same compound?
A: 21 μL min^−1 10^−6 cells

Q: For `C=C(CC(=O)OCCCCCCCC)C(=O)O` [4-octyl itaconate, reference compound], which IC50 (IL-1β) is on record?
A: 37.8 µM

Q: And the IC50 (IL-6)?
A: 19.1 µM

Q: What about the EC50 (NRF2; +GSH) of the same compound?
A: 28.9 µM

Q: And the “NRF2 activation Emax” value (NRF2; +GSH)?
A: 148%

Q: What about the EC50 (NRF2; −GSH) of the same compound?
A: 22.1 µM

Q: And the “NRF2 activation Emax” value (NRF2; −GSH)?
A: 165%

Q: And the Clint (hepatocytes [1])?
A: 351 μL min^−1 10^−6 cells

Q: What about the T½ (hepatocytes [1]) of the same compound?
A: 4 min

Q: And the Clint (hepatocytes [3]; [5])?
A: 401 μL min^−1 10^−6 cells

Q: And the T½ (hepatocytes [3]; [5])?
A: 4 min

Q: Which IC50 (IL-1β; Homo sapiens) does the source give for `C=C(Cc1nc(-c2ccc(OCCCC)nc2)no1)C(=O)O` [Example 1, 2-((3-(6-butoxypyridin-3-yl)-1,2,4-oxadiazol-5-yl)methyl)acrylic acid] here?
A: > 100 µM

Q: And the “effectiveness in the IL-1β assay” value (IL-1β)?
A: not effective

Q: And the EC50 (NRF2; +GSH)?
A: 19.5 µM

Q: What about the “NRF2 activation Emax” value (NRF2; +GSH) of the same compound?
A: 130%

Q: What about the EC50 (NRF2; −GSH) of the same compound?
A: 20.8 µM

Q: What about the “NRF2 activation Emax” value (NRF2; −GSH) of the same compound?
A: 192.5%

Q: What does the source list for `C=C(Cc1nc(-c2ccc(OCCCC)cn2)no1)C(=O)O` [Example 2, 2-((3-(5-butoxypyridin-2-yl)-1,2,4-oxadiazol-5-yl)methyl)acrylic acid]?
A: IC50 (IL-1β; Homo sapiens): > 100 µM; effectiveness in the IL-1β assay (IL-1β): not effective

Q: Which IC50 (IL-1β; Homo sapiens) does the source give for `C=C(Cc1nc(-c2ncc(OCCCC)cc2Cl)no1)C(=O)O` [Example 3, 2-((3-(5-butoxy-3-chloropyridin-2-yl)-1,2,4-oxadiazol-5-yl)methyl)acrylic acid] here?
A: 2.09 µM

Q: What about the EC50 (NRF2; +GSH) of the same compound?
A: 11.4 µM

Q: What about the “NRF2 activation Emax” value (NRF2; +GSH) of the same compound?
A: 78.58%

Q: What about the EC50 (NRF2; −GSH) of the same compound?
A: 22.7 µM

Q: What about the “NRF2 activation Emax” value (NRF2; −GSH) of the same compound?
A: 172.5%

Q: What about the half-life at 10 μM [4] of the same compound?
A: 9.27 min

Q: What about the Clint (hepatocytes [1]) of the same compound?
A: 133 μL min^−1 10^−6 cells

Q: What about the half-life at 10 μM [2] of the same compound?
A: 181 min

Q: What about the Clint (hepatocytes [3]; [5]) of the same compound?
A: 7.18 μL min^−1 10^−6 cells

Q: And the “stability (intrinsic clearance and half-life) compared to 4-octyl itaconate and 2-(2-chlorobenzyl)acrylic acid” value (hepatocytes [3]; mouse and/or human cells, result in words)?
A: more stable

Q: Which IC50 (IL-1β; Homo sapiens) does the source give for `C=C(Cc1nc(-c2ncc(Oc3ccc(F)cc3)cc2Cl)no1)C(=O)O` [Example 4, 2-((3-(3-chloro-5-(4-fluorophenoxy)pyridin-2-yl)-1,2,4-oxadiazol-5-yl)methyl)acrylic acid] here?
A: 2.12 µM

Q: And the EC50 (NRF2; +GSH)?
A: 15.5 µM

Q: And the “NRF2 activation Emax” value (NRF2; +GSH)?
A: 145%

Q: What about the EC50 (NRF2; −GSH) of the same compound?
A: 7.07 µM

Q: And the “NRF2 activation Emax” value (NRF2; −GSH)?
A: 208.56%

Q: With `COC(=O)/C=C/C(=O)O` [monomethyl fumarate, reference compound] as the compound, how does the IC50 (IL-1β; Homo sapiens) read?
A: > 100 µM

Q: And the IC50 (IL-6; Homo sapiens)?
A: > 100 µM

From US20260138973A1, “SUBSTITUTED PYRIDINES FOR USE IN TREATING OR PREVENTING INFLAMMATORY DISEASES OR DISEASES ASSOCIATED WITH AN UNDESIRABLE IMMUNE RESPONSE” (SITRYX THERAPEUTICS LIMITED, priority 2022, published 2026)
